Results from US9546196B2, “Compositions and methods of treatment of cancers” (The University of Toledo, priority 2009, dated 2017).

Assays:
Format in all cases: cell-based
[1] = system: LNCaP cell culture
Description: In one non-limiting example, Peptide A-8R [SEQ ID NO: 1] can be truncated to a smaller peptide that retains the same type of biological activity profile. In certain embodiments, truncating Peptide A-8R [SEQ ID NO: 1] results in greater potency upon conversion of some of the pharmacophore functionalities to peptidomimetic groups that can, in turn, enhance key interactions by lowering the net binding energy. In one experiment, Peptide A-8R [SEQ ID NO: 1] was divided into two parts, using the central proline residue as the division point. […] A minimum number of amino acids desired for cytotoxicity was then identified. […] The following Peptide A truncated and derivative probes were synthesized and evaluated for their effect on cytotoxicity after 3- and 6-day exposures:
The following table lists cell culture data for truncated Peptide A peptides. The amino acid sequences and IC50 values in μM concentrations depict cytotoxicity after 3- and 6-day exposures (“NotA” means not active). “8R” [SEQ ID NO: 6] signifies that 8 arginines are present on the carboxy terminus to mediate membrane translocation. The data has shown that the 8R terminus [SEQ ID NO: 6] can be either as the free carboxy (—OH) or amide (—NH2) with no alteration of permeation or observed activity.
The table below lists LNCaP cell culture data for various Peptide A derivatives, displaying the observed IC50 values in μM concentrations after 3- and 6-day exposures.

[2] = system: CWR22-Rv1 (androgen-refractory) cells; experiment: CWR22-Rv1 cell density with peptide; conditions: 10 μM peptide; 1-8 hrs
Experimental: FIG. 15C: CWR22-Rv1 (androgen-refractory) cells were grown for 1-8 hrs in the presence of 10 μM Peptide A-8R [SEQ ID NO: 1] or vehicle and then cell density was measured.
(§1) To measure how rapid the cytotoxic effect of Peptide A-8R [SEQ ID NO: 1] occurs, LNCaP cells were treated with 10 μM peptide and incubated for 1-8 hrs. […] Using the same conditions, C81 cells were used to study the peptide effect on hormone-refractory prostate cancer cells.

[3] = system: Capan-2 pancreatic cancer cells; experiment: Capan-2 cell density with peptide; conditions: increasing concentration; 3 or 5 days
Experimental: FIG. 21B: Capan-2 pancreatic cancer cells were grown for 3 or 5 days in the presence of increasing concentration of Peptide A-8R [SEQ ID NO: 1] or vehicle and then cell density was measured.
To determine if Peptide A-8R [SEQ ID NO: 1] can be cytotoxic to other cancer cells, a pancreatic cancer cell line, Capan-2, was also tested.

[4] = system: Caspase 3/7; experiment: Caspase 3/7 activity in LNCaP cells; conditions: 10 mM Peptide A-8R
Experimental: FIG. 18A: LNCaP cells were grown for 1-24 hrs in the presence of vehicle, […] Peptide A-8R [SEQ ID NO: 1], or […] Etoposide and then measured for Caspase 3/7 activity.
To determine if the cytotoxicity of Peptide A-8R [SEQ ID NO: 1] is through apoptosis, LNCaP cells were monitored for Caspase 3/7 activity. […] Thus, Peptide A-8R [SEQ ID NO: 1] was able to induce Caspase 3/7 activity much faster than the well-studied apoptosis-inducing drug Etoposide. To confirm that the Peptide was killing cells via apoptosis, the inventors used the pan-caspase inhibitor Z-VAD-FMK.

[5] = system: C81 (androgen-refractory LNCaP) cells; experiment: C81 cell density with peptide; conditions: 10 μM peptide; 1-8 hrs
Experimental: FIG. 15B: C81 (androgen-refractory LNCaP) cells were grown for 1-8 hrs in the presence of 10 μM Peptide A-8R [SEQ ID NO: 1] or vehicle and then cell density was measured.
as §1

Ac-TFCKAFPFHIIRRRRRRRR-OH [Peptide A-8R]
Cytotoxicity [1]: Yes
killing of CWR22-Rv1 cells [2]: able to kill
cytotoxicity to Capan-2 cells [3]: strongly cytotoxic
increase in caspase activity ([4]; after 8 hrs): ~4 fold
caspase activity ([4]; after 24 hrs): diminished to Vehicle levels
increase in caspase activity ([4]; by 1 hour): 2 fold
killing of C81 cells [5]: very effective at killing
